Target: IDO (Homo sapiens, UniProt P14902)
Experiment: LLE_IDO_ABS_DR (IDO assay)

Sequence of IDO (P14902 whole entry): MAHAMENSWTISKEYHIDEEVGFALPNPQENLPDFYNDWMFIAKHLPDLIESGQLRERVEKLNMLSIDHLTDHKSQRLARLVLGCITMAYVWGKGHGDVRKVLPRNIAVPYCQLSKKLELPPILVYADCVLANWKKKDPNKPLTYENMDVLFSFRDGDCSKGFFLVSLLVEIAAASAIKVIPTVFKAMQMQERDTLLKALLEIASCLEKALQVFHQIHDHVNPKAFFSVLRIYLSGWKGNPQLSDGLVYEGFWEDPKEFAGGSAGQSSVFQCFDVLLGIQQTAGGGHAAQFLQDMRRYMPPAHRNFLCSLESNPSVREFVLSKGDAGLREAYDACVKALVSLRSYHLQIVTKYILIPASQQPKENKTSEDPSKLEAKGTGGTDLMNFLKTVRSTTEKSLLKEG

SMILES	IC50 [nM]
Cc1ccc(NC(=O)Nc2cc(-c3cc(F)ccc3C(=O)O)ccc2N(CCC(F)(F)F)Cc2cccc(Cl)c2)cc1 [Example 12, 4′-((3-Chlorobenzyl)(3,3,3-trifluoropropyl)amino)-5-fluoro-3′-(3-(p-tolyl)ureido)-[1,1′-biphenyl]-2-carboxylic acid]	220
Cc1ccc(NC(=O)Nc2cc(-c3cc(F)ccc3C(=O)O)ccc2N(CCC(C)C(F)(F)F)CC(C)C)cc1 (centres unmarked) [Example 203, 5-fluoro-4′-(isobutyl (4,4,4-trifluoro-3-methylbutyl)amino)-3′-(3-(p-tolyl)ureido)-[1,1′-biphenyl]-2-carboxylic acid]	7.31
[2H]C([2H])(C(C)C)N(c1ccc(-c2ccccc2C(=O)O)cc1NC(=O)Nc1ccc(C)cc1)C1CCCCC1 [Example 30, 4′-(Cyclohexyl(1,1-dideutero-2-methylpropyl)amino)-3′-(3-p-tolylureido)biphenyl-2-carboxylic acid]	5.19
Cc1ccc(NC(=O)Nc2cc(-c3ccccc3C(=O)O)ccc2N(CC2CC2)CC2CC2)cc1 [Example 67, 4′-(bis (cyclopropylmethyl)amino)-3′-(3-p-tolylureido)biphenyl-2-carboxylic acid]	350
Cc1ccc(NC(=O)Nc2cc(-c3ccccc3C(=O)O)ccc2N(CCC(C)C(F)(F)F)CC(C)C)cc1 (centres unmarked) [Example 205, 4′-(isobutyl (4,4,4-trifluoro-3-methylbutyl)amino)-3′-(3-(p-tolyl)ureido)-[1,1′-biphenyl]-2-carboxylic acid]	20
CC(C)CN(c1ccc(-c2ccccc2C(=O)O)cc1NC(=O)Nc1ccccc1F)C(C)C [Example 154, 3′-(3-(2-fluorophenyl)ureido)-4′-(isobutyl(isopropyl)amino)biphenyl-2-carboxylic acid]	30
CC(C)CN(c1ccc(-c2ccccc2-c2nnn[nH]2)cc1NC(=O)Nc1ccccc1F)C1CCCC1 [Example 175, 1-(4-(cyclopentyl (isobutyl)amino)-2′-(1H-tetrazol-5-yl)biphenyl-3-yl)-3-(2-fluorophenyl)urea]	4.36
CCC1CCCCN1c1ccc(-c2ccccc2C(=O)O)cc1NC(=O)Nc1ccc(C)cc1 (centres unmarked) [Example 107, 4′-(2-ethylpiperidin-1-yl)-3′-(3-p-tolylureido)biphenyl-2-carboxylic acid]	1860
Cc1ccc(NC(=O)Nc2cc(-c3ccccc3C(=O)O)ccc2Nc2ccccc2C(C)(C)C)cc1 [Example 206, 4′((2-(tert-butyl)phenyl)amino)-3′-(3-(p-tolyl)ureido)-[1,1′-biphenyl]-2-carboxylic acid]	600
CCCN(c1ccc(-c2ccccc2C(=O)O)cc1NC(=O)Nc1ccc(C)cc1)C1CCCC1 [Example 165, 4′-(cyclopentyl(propyl)amino)-3′-(3-p-tolylureido)biphenyl-2-carboxylic acid]	10
COc1ccc(C(=O)O)c(-c2ccc(N(CC(C)C)CC(C)C)c(NC(=O)Nc3ccc(C)cc3)c2)c1 [Example 128, 4′-(diisobutylamino)-5-methoxy-3′-(3-p-tolylureido)biphenyl-2-carboxylic acid]	390
Cc1ccc(NC(=O)Nc2cc(-c3ccccc3-c3nnn[nH]3)ccc2N(CCC(F)(F)F)C2CCCCC2)cc1 [Example 195, 1-(4-(cyclohexyl(3,3,3-trifluoropropyl)amino)-2′-(1H-tetrazol-5-yl)-[1,1′-biphenyl]-3-yl)-3-(p-tolyl)urea]	4.79
Cc1ccc(NC(=O)Nc2cc(-c3ccccc3-c3nnn[nH]3)c(F)cc2N(CC(C)C)C2CCCCC2)cc1 [Example 227, 1-(4-(cyclohexyl(isobutyl)ami-no)-6-fluoro-2′-(1H-tetrazol-5-yl)biphenyl-3-yl)-3-p-tolylurea]	2.91
CN(c1ccc(-c2ccccc2-c2nnn[nH]2)cc1NC(=O)Nc1ccccc1F)c1ccccc1C(C)(C)C [Example 207, 1-(4-((2-(tert-butyl)phenyl) (methyl)amino)-2′-(1H-tetrazol-5-yl)-[1,1′-biphenyl]-3-yl)-3-(2-fluorophenyl)urea]	130
CCCCN(CCCC)c1ccc(-c2sccc2C(=O)O)cc1NC(=O)Nc1ccc(C)cc1 [Example 91, 2-(4-(dibutylamino)-3-(3-p-tolylureido)phenyl)thiophene-3-carboxylic acid]	60
Cc1ccc(NC(=O)Nc2cc(-c3ccccc3NS(C)(=O)=O)ccc2N(CC(C)C)CC(C)C)cc1 [Example 74, N-(4′-(diisobutylamino)-3′-(3-p-tolylureido)biphenyl-2-yl) methanesulfonamide]	5770

The remaining lines, values ahead:

IC50 [nM]	SMILES
2760	CC(C)CN(CC(C)C)c1ccc(-c2ccccc2-c2nnn[nH]2)cc1NC(=O)Nc1cccc2cnccc12 [Example 247, 1-(4-(diisobutylamino)-2′-(1H-tetrazol-5-yl)-[1,1′-biphenyl]-3-yl)-3-(isoquinolin-5-yl)urea]
1330	O=C(Nc1cc(-c2ccccc2-c2nnn[nH]2)ccc1N(CCC(F)(F)F)Cc1ccc(F)cc1)Nc1ccccc1C(F)(F)F [Example 326, 1-(4-((4-fluorobenzyl)(3,3,3-trifluoropropyl)amino)-2′-(1H-tetrazol-5-yl)-[1,1′-biphenyl]-3-yl)-3-(2-(trifluoromethyl)phenyl)urea]
90	CC(C)CN(CC(C)C)c1ccc(-c2ccccc2-c2nnn[nH]2)cc1NC(=O)Nc1cc(F)cc(Cl)c1 [Example 251, 1-(3-chloro-5-fluorophenyl)-3-(4-(diisobutylamino)-2′-(1H-tetrazol-5-yl)-[1,1′-biphenyl]-3-yl)urea]
10	CC(C)CN(c1ccc(-c2ccccc2C(=O)O)cc1NC(=O)Nc1ccc(C(F)(F)F)cc1)C1CCC(F)(F)CC1 [Example 513]
160	O=C(Nc1ccc(OC(F)(F)F)cc1)Nc1cc(-c2ccccc2-c2nnn[nH]2)ccc1N(CCC(F)(F)F)Cc1ccc(F)cc1C(F)(F)F [Example 339, 1-(4-((4-fluoro-2-(trifluoromethyl)benzyl)(3,3,3-trifluoropropyl)amino)-2′-(1H-tetrazol-5-yl)-[1,1′-biphenyl]-3-yl)-3-(4-(trifluoromethoxy)phenyl)urea]
1840	Cc1ccc(NC(=O)Nc2cc(-c3ccccc3C(=O)O)ccc2N(C)c2ccccc2C(C)(C)C)cc1 [Example 481]
250	C#CCOc1ccccc1NC(=O)Nc1cc(-c2ccccc2-c2nnn[nH]2)ccc1N(CC(C)C)CC(C)C [Example 269, 1-(4-(diisobutylamino)-2′-(2H-tetrazol-5-yl)-[1,1′-biphenyl]-3-yl)-3-(2-(prop-2-yn-1-yloxy)phenyl)urea]
830	CC(C)CN(CC(C)C)c1ccc(-c2ccccc2-c2nnn[nH]2)cc1NC(=O)NCC1CCCCC1 [Example 268, 1-(cyclohexylmethyl)-3-(4-(diisobutylamino)-2′-(1H-tetrazol-5-yl)-[1,1′-biphenyl]-3-yl)urea]
120	O=C(Nc1ccc(C2CC2)c(F)c1)Nc1cc(-c2ccccc2-c2nnn[nH]2)ccc1N(CCC(F)(F)F)Cc1ccccn1 [Example 354, 1-(4-cyclopropyl-3-fluorophenyl)-3-(4-((pyridin-2-ylmethyl)(3,3,3-trifluoropropyl)amino)-2′-(1H-tetrazol-5-yl)-[1,1′-biphenyl]-3-yl)urea]
5490	Cc1ccc(NC(=O)Nc2cc(-c3ccccc3-c3nnn[nH]3)ccc2N2CCCc3ccccc32)cn1 [Example 362, 1-(4-(3,4-Dihydroquinolin-1(2H)-yl)-2′-(1H-tetrazol-5-yl)-[1,1′-biphenyl]-3-yl)-3-(6-methylpyridin-3-yl)urea]

From patent US9758492B2, “IDO inhibitors” (Bristol-Myers Squibb Company, priority 2013, dated 2017)
